Data taken from ChEMBL document CHEMBL3745651, “Flat SAR of P3-methylsulphonamide based small molecule legumain inhibitors” (Bioorg Med Chem Lett, 2016).
Values after ≈ are worked out from the molar mass of the structure shown.

How the values were obtained:
Legumain = target: T1, Legumain (Homo sapiens, UniProt Q99538); test: Inhibition of recombinant human legumain using Z-Ala-Ala-Asn-MCA as substrate preincubated with protein followed by substrate addition measured every 2 mins for 60 mins by microplate reader analysis
T1 sequence (Q99538 whole entry): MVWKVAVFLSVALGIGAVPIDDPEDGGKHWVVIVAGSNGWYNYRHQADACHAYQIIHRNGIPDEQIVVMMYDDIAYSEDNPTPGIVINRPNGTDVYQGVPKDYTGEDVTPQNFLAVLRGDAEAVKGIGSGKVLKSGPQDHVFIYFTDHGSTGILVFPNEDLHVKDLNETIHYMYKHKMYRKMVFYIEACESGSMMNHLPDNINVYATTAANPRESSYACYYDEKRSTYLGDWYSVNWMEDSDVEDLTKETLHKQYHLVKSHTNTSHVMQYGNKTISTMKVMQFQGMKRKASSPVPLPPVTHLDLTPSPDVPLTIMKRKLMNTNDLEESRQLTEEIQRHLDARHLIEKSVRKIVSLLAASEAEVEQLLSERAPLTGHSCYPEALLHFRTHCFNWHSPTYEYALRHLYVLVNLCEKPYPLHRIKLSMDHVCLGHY

[1] = Intrinsic clearance in rat liver microsomes at 1 uM incubated for 50 mins by LC-MS/MS method in presence of NADPH; type: ADME; details: read-out: CLH
[2] = Intrinsic clearance in rat hepatocytes assessed per 10^6 cells at 1 uM incubated at 37 degC for 50 mins by LC-MS/MS method […]; type: ADME, cell-based, Hepatocyte; details: read-out: CLH
[3] = Intrinsic clearance in mouse liver microsomes at 1 uM incubated for 50 mins by LC-MS/MS method in presence of NADPH; type: ADME; details: read-out: CLH
[4] = Kinetic solubility of compound in pH 7.4 PBS buffer after 90 mins by plate reader analysis; type: physicochemical; details: read-out: Kinetic_solubility

Work on CCOc1cccc(-c2ccc(CN([C@@H](C)C(=O)N[C@H](C#N)CC(N)=O)S(C)(=O)=O)cc2)c1 yielded an IC50 (Legumain) of 586 nM.

With CC(C)Oc1cccc(-c2ccc(CN([C@H](C)C(=O)N[C@H](C#N)CC(N)=O)S(C)(=O)=O)cc2)c1 the IC50 (Legumain) was 5050 nM.

In the case of C[C@@H](C(=O)N[C@H](C#N)CC(N)=O)N(Cc1ccc(-c2cccc(F)c2)cc1)S(C)(=O)=O, the IC50 (Legumain) is reported as 128 nM, the microsomal CLint at 1 µM [1] is reported as 19 µL/min/mg and the hepatocyte CLint at 1 µM [2] is reported as 45 µL/min/1e6 cells. The microsomal CLint at 1 µM [3] was 4 µL/min/mg and the solubility kinetic at 1.5 h [4] was 185 µM (≈ 82.6 µg/mL).

With C[C@H](C(=O)N[C@H](C#N)CC(N)=O)N(Cc1ccc(-c2cc(F)cc(F)c2)cc1)S(C)(=O)=O the IC50 (Legumain) was 9250 nM.

In the case of CCC[C@@H](C(=O)N[C@H](C#N)CC(N)=O)N(Cc1ccc(-c2cccc(F)c2)cc1)S(C)(=O)=O, the IC50 (Legumain) is reported as 4380 nM.

C[C@@H](C(=O)N[C@H](C#N)CC(N)=O)N(Cc1ccc(-c2ccccc2F)cc1)S(C)(=O)=O gave an IC50 (Legumain) of 356 nM.

For CC(C)Oc1cccc(-c2ccc(CN([C@@H](C)C(=O)N[C@H](C#N)CC(N)=O)S(C)(=O)=O)cc2)c1, the IC50 (Legumain) was 882 nM.

Work on CCS(=O)(=O)N(Cc1ccc(-c2cccc(F)c2F)cc1)[C@@H](C)C(=O)N[C@H](C#N)CC(N)=O yielded an IC50 (Legumain) of 1090 nM.

For CCCS(=O)(=O)N(Cc1ccc(-c2cccc(F)c2F)cc1)[C@@H](C)C(=O)N[C@H](C#N)CC(N)=O, the IC50 (Legumain) was 6740 nM.

With C[C@@H](C(=O)N[C@H](C#N)CC(N)=O)N(Cc1ccc(-c2ccc(F)c(F)c2)cc1)S(C)(=O)=O the IC50 (Legumain) was 252 nM.

Molecule CC[C@@H](C(=O)N[C@H](C#N)CC(N)=O)N(Cc1ccc(-c2cccc(F)c2F)cc1)S(C)(=O)=O has an IC50 (Legumain) of 5850 nM.

Molecule C[C@@H](C(=O)N[C@H](C#N)CC(N)=O)N(Cc1ccc(-c2cc(F)cc(F)c2)cc1)S(C)(=O)=O has an IC50 (Legumain) of 1360 nM.

Work on C[C@H](C(=O)N[C@H](C#N)CC(N)=O)N(Cc1ccc(-c2ccccc2F)cc1)S(C)(=O)=O yielded an IC50 (Legumain) greater than 10000 nM.

With CCOc1cccc(-c2ccc(CN([C@H](C)C(=O)N[C@H](C#N)CC(N)=O)S(C)(=O)=O)cc2)c1 the IC50 (Legumain) was greater than 10000 nM.

C[C@@H](C(=O)N[C@H](C#N)CC(N)=O)N(Cc1ccc(-c2cccc(F)c2F)cc1)S(C)(=O)=O showed an IC50 (Legumain) of 323 nM, a microsomal CLint at 1 µM [1] of 17 µL/min/mg and a hepatocyte CLint at 1 µM [2] of 38 µL/min/1e6 cells. For the same molecule, the microsomal CLint at 1 µM [3] was 3 µL/min/mg and the solubility kinetic at 1.5 h [4] was 181 µM (≈ 84.1 µg/mL).

For COc1cccc(-c2ccc(CN([C@@H](C)C(=O)N[C@H](C#N)CC(N)=O)S(C)(=O)=O)cc2)c1, the IC50 (Legumain) was 378 nM, the microsomal CLint at 1 µM [1] was 38 µL/min/mg and the hepatocyte CLint at 1 µM [2] was 69 µL/min/1e6 cells. The microsomal CLint at 1 µM [3] was 24 µL/min/mg and the solubility kinetic at 1.5 h [4] was 193 µM (≈ 88.5 µg/mL).

C[C@H](C(=O)N[C@H](C#N)CC(N)=O)N(Cc1ccc(-c2cccc(F)c2F)cc1)S(C)(=O)=O gave an IC50 (Legumain) of 1460 nM.

In the case of CC(C)CS(=O)(=O)N(Cc1ccc(-c2cccc(F)c2)cc1)[C@@H](C)C(=O)N[C@H](C#N)CC(N)=O, the IC50 (Legumain) is reported as 2270 nM.

C[C@H](C(=O)N[C@H](C#N)CC(N)=O)N(Cc1ccc(-c2ccc(F)c(F)c2)cc1)S(C)(=O)=O gave an IC50 (Legumain) of 6300 nM.

Work on C[C@H](C(=O)N[C@H](C#N)CC(N)=O)N(Cc1ccc(-c2cccc(F)c2)cc1)S(C)(=O)=O yielded an IC50 (Legumain) of 2260 nM.

COc1cccc(-c2ccc(CN([C@H](C)C(=O)N[C@H](C#N)CC(N)=O)S(C)(=O)=O)cc2)c1 gave an IC50 (Legumain) of 5850 nM.

In the case of CCC[C@@H](C(=O)N[C@H](C#N)CC(N)=O)N(Cc1ccc(-c2cccc(F)c2F)cc1)S(C)(=O)=O, the IC50 (Legumain) is reported as 7750 nM.

For CC(C(=O)N[C@H](C#N)CC(N)=O)N(Cc1ccc(-c2cccc(Cl)c2)cc1)S(C)(=O)=O (mixture of isomers), the IC50 (Legumain) was 425 nM.
